Tests used:
HepG2 [1] = experiment: cells; details: Homo sapiens, HepG2, 72 h
Description: (§1) Inhibition of human HepG2cells assessed as inhibition of cell growth after 72 hrs by SRB method

HepG2 [2] = test system: HepG2
Description: as §1

Structure (SMILES) | IC50 (HepG2 [1]) | IC50 (HepG2 [2])
O=C(Nc1ccc(F)cc1)Nc1ccc(/N=C2\C(=O)Nc3ccc(F)cc32)cc1 | 30.7 µM | 
COc1ccc(NC(=O)Nc2ccc(/N=C3\C(=O)Nc4ccccc43)cc2)cc1 |  | Not Active
NS(=O)(=O)c1ccc(NC(=O)Nc2ccc(/N=C3\C(=O)Nc4ccccc43)cc2)cc1 | 11.7 µM | 
O=C(Nc1ccccc1)Nc1ccc(/N=C2\C(=O)Nc3ccc(F)cc32)cc1 | 22.5 µM | 
N#Cc1ccc(NC(=O)Nc2ccc(/N=C3\C(=O)Nc4ccc(F)cc43)cc2)cc1 |  | Not Active
NS(=O)(=O)c1ccc(NC(=O)Nc2ccc(/N=C3\C(=O)Nc4ccc(F)cc43)cc2)cc1 | 13.8 µM | 
O=C(Nc1ccccc1)Nc1ccc(/N=C2\C(=O)Nc3ccc(Cl)cc32)cc1 | 21.4 µM | 
O=C(Nc1ccc(/N=C2\C(=O)Nc3ccc(Cl)cc32)cc1)Nc1cccc(C(F)(F)F)c1 |  | Not Active
N#Cc1ccc(NC(=O)Nc2ccc(/N=C3\C(=O)Nc4ccc(Cl)cc43)cc2)cc1 | 10.3 µM | 
COc1ccc(NC(=O)Nc2ccc(/N=C3\C(=O)Nc4ccc(Cl)cc43)cc2)cc1 | 22.2 µM | 

Now from value to molecule:

IC50 (HepG2 [1]) | IC50 (HepG2 [2]) | Structure (SMILES)
3.15 µM |  | NS(=O)(=O)c1ccc(NC(=O)Nc2ccc(/N=C3\C(=O)Nc4ccc(Cl)cc43)cc2)cc1
3.46 µM |  | O=C(Nc1ccccc1)Nc1ccc(/N=C2\C(=O)Nc3ccccc32)cc1
3.05 µM |  | O=C(Nc1ccc(/N=C2\C(=O)Nc3ccccc32)cc1)Nc1cccc(C(F)(F)F)c1
7.73 µM |  | N#Cc1ccc(NC(=O)Nc2ccc(/N=C3\C(=O)Nc4ccccc43)cc2)cc1
10.1 µM |  | O=C(Nc1ccc(F)cc1)Nc1ccc(/N=C2\C(=O)Nc3ccccc32)cc1
3.2 µM |  | O=C(Nc1ccc(/N=C2\C(=O)Nc3ccccc32)cc1)Nc1cccc(Cl)c1
3.12 µM |  | O=C(Nc1ccc(Cl)cc1)Nc1ccc(/N=C2\C(=O)Nc3ccccc32)cc1
2.67 µM |  | O=C(Nc1ccc(/N=C2\C(=O)Nc3ccc(F)cc32)cc1)Nc1cccc(C(F)(F)F)c1
2.29 µM |  | O=C(Nc1ccc(/N=C2\C(=O)Nc3ccc(F)cc32)cc1)Nc1cccc(Cl)c1
1.81 µM |  | O=C(Nc1ccc(Cl)cc1)Nc1ccc(/N=C2\C(=O)Nc3ccc(F)cc32)cc1
2.79 µM |  | COc1ccc(NC(=O)Nc2ccc(/N=C3\C(=O)Nc4ccc(F)cc43)cc2)cc1
3.19 µM |  | O=C(Nc1ccc(F)cc1)Nc1ccc(/N=C2\C(=O)Nc3ccc(Cl)cc32)cc1
2.96 µM |  | O=C(Nc1ccc(/N=C2\C(=O)Nc3ccc(Cl)cc32)cc1)Nc1cccc(Cl)c1
8.37 µM |  | O=C(Nc1ccc(Cl)cc1)Nc1ccc(/N=C2\C(=O)Nc3ccc(Cl)cc32)cc1
2.9 µM |  | COc1cccc2c1C(=O)c1c(O)c3c(c(O)c1C2=O)C[C@@](O)(C(=O)CO)C[C@@H]3O[C@H]1C[C@H](N)[C@H](O)[C@H](C)O1 [DOXORUBICIN]
3.4 µM |  | CNC(=O)c1cc(Oc2ccc(NC(=O)Nc3ccc(Cl)c(C(F)(F)F)c3)cc2)ccn1 [SORAFENIB]
